Measurements from the supplement of paper PMC10307832.

Tests used:
Test in all cases: relative viability (nuclei count vs DMSO), 5 days (fraction); higher = more cells survive
[1] = compound: CN(C)C[C@@H]1CCn2cc(c3ccccc32)C2=C(C(=O)NC2=O)c2cn(c3ccccc23)CCO1 [Ruboxistaurin] + CS(=O)(=O)CCNCc1ccc(-c2ccc3ncnc(Nc4ccc(OCc5cccc(F)c5)c(Cl)c4)c3c2)o1 [Lapatinib] (partner 2 µM)
Outline: (§1)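 Cells from lung cancer lines were seeded into 1536-well plates and, one day later, dosed by pin tool. Treatments were either a single drug or a fixed dose of an anchor drug with five library-drug doses (not always all listed) in √10 steps. After 5 days, nuclei were stained in a one-step fixation (final 0.05% Triton X-100, 1% formaldehyde, 1 ug/ml Hoechst) and counted on 4× images, and relative viability is the treated-to-vehicle nuclei ratio, as the median of duplicate plates.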

[2] = compound: CN(C)C[C@@H]1CCn2cc(c3ccccc32)C2=C(C(=O)NC2=O)c2cn(c3ccccc23)CCO1 [Ruboxistaurin] + Cc1nc(NC(=O)N2CCC[C@H]2C(N)=O)sc1-c1ccnc(C(C)(C)C(F)(F)F)c1 [Alpelisib] (partner 2 µM)
Outline: as §1

[3] = compound: CN(C)C[C@@H]1CCn2cc(c3ccccc32)C2=C(C(=O)NC2=O)c2cn(c3ccccc23)CCO1 [Ruboxistaurin] + Cc1nc(Nc2ncc(C(=O)Nc3c(C)cccc3Cl)s2)cc(N2CCN(CCO)CC2)n1 [Dasatinib] (partner 0.075 µM)
Outline: as §1

[4] = compound: CN(C)C[C@@H]1CCn2cc(c3ccccc32)C2=C(C(=O)NC2=O)c2cn(c3ccccc23)CCO1 [Ruboxistaurin] + N=C(N)NC(=N)NCCc1ccccc1 [Phenformin] (partner 250 µM)
Outline: as §1

Ruboxistaurin + AZD7762 = compound: CN(C)C[C@@H]1CCn2cc(c3ccccc32)C2=C(C(=O)NC2=O)c2cn(c3ccccc23)CCO1 [Ruboxistaurin] + NC(=O)Nc1cc(-c2cccc(F)c2)sc1C(=O)N[C@H]1CCCNC1 [AZD7762] (partner 0.2 µM)
Outline: as §1

Cell Line	relative viability ([1]; first compound 0.08 µM)	relative viability ([1]; first compound 0.8 µM)	relative viability ([1]; first compound 2.53 µM)	relative viability ([1]; first compound 8 µM)	relative viability ([2]; first compound 0.08 µM)	relative viability ([2]; first compound 0.8 µM)	relative viability ([2]; first compound 2.53 µM)	relative viability ([2]; first compound 8 µM)	relative viability ([3]; first compound 0.08 µM)	relative viability ([3]; first compound 0.8 µM)	relative viability ([3]; first compound 2.53 µM)	relative viability ([3]; first compound 8 µM)	relative viability ([4]; first compound 0.08 µM)	relative viability ([4]; first compound 0.8 µM)	relative viability ([4]; first compound 2.53 µM)	relative viability ([4]; first compound 8 µM)	relative viability (Ruboxistaurin + AZD7762; first compound 0.08 µM)	relative viability (Ruboxistaurin + AZD7762; first compound 0.8 µM)	relative viability (Ruboxistaurin + AZD7762; first compound 2.53 µM)	relative viability (Ruboxistaurin + AZD7762; first compound 8 µM)
201T	1.06	1	1.06	1.05	1.03	1.01	1.01	1.01	0.572	0.536	0.603	0.559	0.49	0.433	0.449	0.426	0.539	0.549	0.581	0.641
A-427	0.995	0.988	0.917	0.983	1.07	0.996	1.02	0.874	0.677	0.639	0.675	0.374	0.398	0.314	0.327	0.273	0.849	0.639	0.709	0.516
ABC-1	1.48	1.01	1.06	1.47	1.35	1.13	1.07	0.839	0.638	0.56	0.633	0.465	0.252	0.245	0.182	0.233	0.662	0.894	0.771	0.598
BEN	0.803	0.617	0.708	0.564	1.06	1.07	0.973	0.787	0.316	0.297	0.307	0.298	0.26	0.292	0.248	0.245	0.833	0.668	0.639	0.509
CAL-12T	0.735	0.554	0.765	0.78	1.47	1.17	1.27	1.13	0.339	0.324	0.301	0.28	0.597	0.585	0.568	0.563	0.691	0.661	0.748	0.65
COR-L23	1.23	0.914	1.09	1.08	0.804	0.814	0.73	0.695	0.489	0.399	0.549	0.602	0.408	0.41	0.519	0.493				
COR-L 105	0.335	0.385	0.365	0.341	1.17	1.09	0.911	0.706	0.352	0.236	0.362	0.262	0.599	0.436	0.446	0.4				
ChaGo-K-1									0.564	0.611	0.636	0.478	0.47	0.525	0.532	0.412	0.86	0.856	0.908	0.911
EKVX	0.2	0.19	0.216	0.188	0.998	0.807	0.858	0.745	0.641	0.476	0.551	0.579	0.249	0.221	0.234	0.26	0.607	0.623	0.649	0.656
EMC-BAC-2	0.879	0.856	0.866	0.802	0.75	0.703	0.733	0.612	0.328	0.262	0.256	0.138	0.601	0.469	0.505	0.438	1.12	1.05	1.11	0.891
EPLC-272H	0.966	0.916	0.933	0.962	1.1	0.807	0.901	0.846	0.354	0.371	0.342	0.282	0.338	0.301	0.297	0.349	0.263	0.108	0.276	0.0372
H3255	0.221	0.217	0.27	0.221	0.738	0.698	0.654	0.521	0.495	0.353	0.347	0.335	0.354	0.326	0.345	0.352	1.05	0.984	0.924	0.97
HARA	0.803	0.672	0.712	0.57	1.05	0.797	0.914	0.481	0.216	0.232	0.228	0.3	0.493	0.404	0.535	0.475	0.346	0.525	0.339	0.336
HCC-15	0.879	0.88	0.879	0.947	0.867	0.714	0.909	0.743	0.683	0.593	0.489	0.518	0.513	0.46	0.486	0.504	1.25	1.2	1.13	1.25
HCC-44	0.982	1	1.03	1.1	0.765	0.715	0.831	0.755					0.204	0.193	0.185	0.19	1.02	1.01	1.02	1.07
HCC-78	0.745	0.717	0.774	0.944	0.358	0.311	0.327	0.286	0.52	0.399	0.377	0.283	0.691	0.906	0.779	0.739	0.735	0.549	0.715	0.536

Cell Line	relative viability ([1]; first compound 0.08 µM)	relative viability ([1]; first compound 0.8 µM)	relative viability ([1]; first compound 2.53 µM)	relative viability ([1]; first compound 8 µM)	relative viability ([2]; first compound 0.08 µM)	relative viability ([2]; first compound 0.8 µM)	relative viability ([2]; first compound 2.53 µM)	relative viability ([2]; first compound 8 µM)	relative viability ([3]; first compound 0.08 µM)	relative viability ([3]; first compound 0.8 µM)	relative viability ([3]; first compound 2.53 µM)	relative viability ([3]; first compound 8 µM)	relative viability ([4]; first compound 0.08 µM)	relative viability ([4]; first compound 0.8 µM)	relative viability ([4]; first compound 2.53 µM)	relative viability ([4]; first compound 8 µM)	relative viability (Ruboxistaurin + AZD7762; first compound 0.08 µM)	relative viability (Ruboxistaurin + AZD7762; first compound 0.8 µM)	relative viability (Ruboxistaurin + AZD7762; first compound 2.53 µM)	relative viability (Ruboxistaurin + AZD7762; first compound 8 µM)
IA-LM	0.751		1.07	0.789	0.971	0.663	0.747	0.612												
LCLC-103H					0.99	0.802	0.826	0.862	0.641	0.386	0.482	0.389	0.336	0.285	0.336	0.321	0.869	0.744	0.788	0.775
NCI-H441					0.653	0.717	0.845	0.498	0.538	0.525	0.494	0.577	0.942	0.886	0.867	0.862	1.08	1.1	1.15	1.34
NCI-H520	0.904	0.772	0.867	0.864	0.976	0.789	1.01	0.822	0.195	0.157	0.176	0.129	0.766	0.54	0.599	0.393				
NCI-H522									0.835	0.83	0.953	0.719	0.675	0.605	0.703	0.622	0.987	0.804	0.833	0.81
NCI-H661	0.593	0.451	0.639	0.623	0.982	0.696	0.902	0.567	0.982	0.776	1.01	1.04	0.253	0.268	0.297	0.29				
NCI-H1650	1.03	0.694	1.09	0.829					0.418	0.273	0.331	0.254	0.542	0.387	0.4	0.287				
NCI-H1703	1.08	1.06	1.09	0.678	0.356	0.323	0.366	0.308									0.111	0.115	0.122	0.119
NCI-H2009	1.02	0.956	0.931	1.13	1.21	1.14	1.18	1.14	0.341	0.225	0.267	0.225	0.579	0.442	0.536	0.502				
NCI-H2023	0.862	0.679	0.913	0.628	0.633	0.565	0.605	0.415	0.579	0.453	0.523	0.439	0.448	0.388	0.445	0.383				
NCI-H2228	1.51	1.1	1.14	0.911	0.85	0.675	0.837	0.478	0.615	0.493	0.49	0.456	0.345	0.256	0.419	0.269				
SK-LU-1	0.937	0.785	0.996	0.969	1.07	0.81	0.921	0.782	0.195	0.145	0.163	0.169	0.61	0.495	0.628	0.526				
SK-MES-1	0.515	0.413	0.5	0.425	1	0.782	0.837	0.801	0.395	0.308	0.329	0.339	0.678	0.607	0.658	0.639				
SW 900									0.838	0.436	0.64	0.383	0.71	0.597	0.564	0.55	0.625	0.501	1.09	0.568
SW 1573	1.1	1.12	1.18	1.03	0.752	0.688	0.72	0.706	0.52	0.331	0.452	0.456	0.408	0.141	0.445	0.282				
UMC-11	1.03	0.844	0.875	0.644	0.966	0.896	0.95	0.743	0.481	0.455	0.429	0.434	0.321	0.33	0.315	0.354				
